Source: PubChem BioAssay AID2384 (Southern Research Specialized Biocontainment Screening …, 2010)
“And” between values parts separate entries of the source, which are not always exact repeats. Identical values can stand only once.

System: S. typhi GFP reporter counter-screen, fluorescence, 4 h
Test: S. typhi counter-screen signal inhibition – fluorescence, 4 h, counter-screen for PhoP regulon inhibitor project, dose response (AID 2384)

SMILES	IC50
COc1cc(Br)cc(C=Nc2cccc(C(F)(F)F)c2)c1O	73.8 µM
C#CCOCCOCCOCCNc1nc(N2CCN(C(=O)CCCCCCCCCCNC(=O)[C@H](CCCCN)n3cc(C)nn3)CC2)nc(N2CCN(C(=O)CCCCCCCCCCNC(=O)[C@H](CO)n3cc(CCCSC)nn3)CC2)n1	130 µM
O=C(CCN1Cc2ccccc2C1)c1ccc2c(c1)OCCO2	137 µM
O=C(Nc1ccccc1)Nc1nccs1	96 µM
CCn1cc(C(=O)O)c(=O)c2cnc(N3CCNCC3)nc21	50.1 µM
c1cc2c(cc1C1CCCCC1)c1c3n2CCN=C3CCC1	37.9 µM
CCCCCCC[N+](CC)(CC)CCCCc1ccc(Cl)cc1	37.3 µM
COc1cc(/C=C2/C(=O)NN(c3ccc(C)c(Cl)c3)C2=O)cc([N+](=O)[O-])c1O	74.6 µM
O=c1cc(-c2ccc(O)cc2)oc2c(O)c(O)c(O)c(O)c12	35.6 µM
Cc1cc(NC2CCCCC2)nc(NCc2ccccc2)n1	36.1 µM
CN(O)/C=c1/ccc2c(n1)C(=O)C=CC=2	19.5 µM
COc1ccc(CNc2ncnc3c2[nH]c2ccccc23)cc1	150 µM
O/N=C/c1ccc(OCc2ccccc2)c(Cl)c1	103 µM
O=C(O)c1sccc1Oc1ccc(F)cc1[N+](=O)[O-]	13.1 µM
Oc1ccccc1Nc1nc(NCc2ccco2)c2ccccc2n1	50.9 µM
CN1CCN(c2c(F)cc3c(=O)c(C(=O)O)cn4c3c2OCN4C)CC1	< 0.55 µM
Cc1nnc(N/N=C/c2ccccn2)[nH]c1=O	31.4 µM
CC(C(=O)NC1C=CS(=O)(=O)C1)N1C(=O)/C(=C/c2ccc(Cl)cc2)SC1=S (configuration not stated)	30.3 µM
CC(C)(C)/C(O)=C/c1nc2cc(Cl)ccc2oc1=O	24.2 µM
NC(=O)c1ccc(N=C2C(=O)Nc3ccc([N+](=O)[O-])cc32)cc1	72.8 µM
Cc1cc(N=Nc2ccccc2)c(NCC(O)C(O)C(O)CO)cc1C (configuration not stated)	144 µM
CN(C)CCN(C(=O)C1=COCCO1)c1nc2ccc(Cl)cc2s1	49.5 µM

SMILES	IC50
CCN(CC)C(=S)SSC(=S)N(CC)CC	74.7 µM
CN(C)C1C(=O)C(C(N)=O)=C(O)C2(O)C(=O)C3=C(O)c4c(O)cccc4C(C)(O)C3CC12 (configuration not stated)	1.71 µM
CCCCCOc1ccc(C)cc1CN(CCCl)CCCl	70.3 µM
N=c1n(CCN2CCCCC2)c2ccccc2n1CC(=O)c1ccc(Cl)c(Cl)c1	16.4 µM
O=C(Nc1nnc(-c2cccs2)o1)c1cccc(Oc2ccccc2)c1	59.6 µM
Cc1ccccc1C(=O)NNC(=S)NC(=O)COc1ccccc1	126 µM
N=c1c2c(n(Cc3ccc(Cl)c(Cl)c3)c3c1CCC3)CCCC2	31.1 µM
CSc1ccccc1NC(=O)CN1CCCCC1C (configuration not stated)	131 µM
NC1=NC[C@H](Cc2ccc(O)cc2)N1CCCCC1CCCCC1	13.9 µM
O=C(N[C@H](CO)[C@H](O)c1ccc([N+](=O)[O-])cc1)C(Cl)Cl	1.57 µM
O=C(Nc1ccccc1)Oc1ccc[nH]c1=O	52.9 µM
O=C(/C=C/c1cc(Br)ccc1O)c1ccco1	52.5 µM
O=c1ccc2cc3c([nH]c4ccc(Br)cc43)oc-2c1O	18.2 µM
Fc1ccc(CCNCc2ccc(Cl)c(Cl)c2)cc1	36.6 µM
NC1=NC2=C(CCCC2)C2(CCCCC2)S1	63.8 µM
O=c1[nH]cc(N=Cc2cc([N+](=O)[O-])ccc2O)c(=O)[nH]1	77.8 µM
Oc1cccc(Nc2nc(NCC3CCCO3)c3ccccc3n2)c1 (configuration not stated)	38.1 µM
C/C(=N\NC(=O)c1cccc(Br)c1)c1ccccn1	31.6 µM
c1ccc(Nc2nc(NCC3CCCO3)c3ccccc3n2)cc1 (configuration not stated)	26 µM
Cn1c(SCC(=O)N/N=C/c2ccc([N+](=O)[O-])s2)nnc1-c1ccc(Cl)cc1	46.2 µM
O=c1[nH]cc(F)c(=O)[nH]1	2.53 µM
O=C(O)/C(=C\C(=O)c1ccccc1)Nc1ccccc1	103 µM

SMILES	IC50
CCN1CCN(C(=O)c2cc3cc(F)ccc3[nH]2)CC1	18.3 µM
Clc1ccc(CN2C3=NCCN3c3ccccc32)cc1	42.8 µM
OC(CNCCc1ccccc1)COc1ccc(OCC(O)CNCCc2ccccc2)cc1 (configuration not stated)	21.3 µM
N/C(=N\N=C/c1ccc(F)cc1)N/N=C\c1ccc(F)cc1	38.6 µM
CN1CCN(CCCN2c3ccccc3Sc3ccc(C(F)(F)F)cc32)CC1	36.6 µM
O=[N+]([O-])c1ccc(/C=[N+](\[O-])CCO)o1	88.9 µM
O=C(CSc1ccccn1)Nc1nonc1[N+](=O)[O-]	116 µM
COc1ccc(Nc2cc(C)c3c(O)cccc3n2)cc1	24.9 µM
NC[C@@H]1O[C@H](C23CC4CC(CC(C4)C2)C3)Cc2c1ccc(O)c2O	27 µM
Nc1nonc1-n1nnc(C(=O)N/N=C/c2cc(Br)ccc2O)c1CSC1=NCCS1	24.1 µM
Cn1c(CN2CCCC2)nc2cc(NC(=O)COc3ccc(Cl)cc3)ccc21	128 µM
CC(=O)c1cc(O)c2ccccc2c1O	107 µM
Oc1ccc(C2NCc3ccccc3-n3cccc32)cc1Cl (configuration not stated)	89 µM
O=C(NC(=S)NNC(=O)c1ccco1)c1ccc(Br)cc1	76.2 µM
CCCNC(=O)c1cn(CC)c2cc(N3CCN(C)CC3)c(F)cc2c1=O	30.6 µM
Cc1ccc(C(=O)NCCN2C3=NC[C@@H](Cc4ccccc4)N3C[C@H]2Cc2ccc(O)cc2)cc1Br	35.8 µM
CCCNC1=C(C)C(=O)C2=C(C1=O)C(COC(N)=O)[C@]1(OC)C3NC3CN21 (some centres not stated)	21.3 µM
COc1c2ccccc2nc2ccccc12	40.4 µM
CN(C)CCCNc1cc(C(C)(C)C)nc2c(-c3ccc(Cl)cc3)cnn12	18.7 µM
CCCCOc1ccc(CSC(=N)N)cc1Cl	19.1 µM
CN1CCN(c2c(F)cc3c(=O)c(C(=O)O)cn4c3c2SCC4)CC1	6.28 µM and 8.88 µM
O=C(/C=C/c1ccc(F)cc1)NC(=S)NNC(=O)c1cnccn1	19 µM

SMILES	IC50
CC(=O)NC(c1ccc(Cl)cc1Cl)c1ccc2cccnc2c1O (configuration not stated)	39.6 µM
CC(NCC(O)COc1ccc2ccccc2c1)c1ccccc1 (configuration not stated)	58.4 µM
N=c1c2c(n(Cc3ccc(Cl)cc3Cl)c3c1CCC3)CCCC2	37.5 µM
CCCCCCCCCCn1c2c(c(=N)c3c1CCC3)CCC2	9.77 µM
COc1ccc(C(=O)NC(=S)NNC(=O)c2cnccn2)cc1	47.1 µM
OCCN1CCN(Cc2cc(Cl)c3cccnc3c2O)CC1	56.6 µM
O=Nc1c(O)c2ccccc2c2ccccc12	37.7 µM
Cc1cc2nc(C3CCN(CC4COc5ccccc5O4)CC3)[nH]c2cc1C (configuration not stated)	19.5 µM
C[N+]12CN3CN(CN(C3)C1)C2	69.8 µM
CCc1ccc(Nc2n[n+](-c3ccccc3)c(-c3c(Cl)cccc3Cl)s2)cc1	41.3 µM
CN(C)CCCN1c2ccccc2CCc2ccc(Cl)cc21	70.5 µM
Cc1ccc(CC(=O)Nc2ncc([N+](=O)[O-])s2)cc1	78.5 µM
Cc1ccc(C(C[N+](=O)[O-])Sc2ccc(N)cc2)cc1 (configuration not stated)	26.7 µM
O=C(/C=C(\O)c1ccccc1)C(=O)NNC(=O)c1ccccc1	44.5 µM
CNC(CC(=O)c1ccc([N+](=O)[O-])cc1)C(Cl)(Cl)Cl (configuration not stated)	82.7 µM
CCCCOc1ccc(C(=O)OC2CC(C)N(C)CC2C)cc1 (configuration not stated)	26.7 µM
O=C(Oc1c(Cl)cc(Cl)c2cccnc12)c1ccco1	15.6 µM
CCCN(CCC)CCNC(=O)C1CCN(Cc2nc(-c3ccc(Cl)cc3)oc2C)CC1	57.1 µM
Cc1ccc(Nc2cc(C)c3c(O)cccc3n2)cc1C	11.7 µM
CC(C)CCC(CCNCc1ccccn1)c1ccc(Cl)cc1 (configuration not stated)	54.7 µM
Oc1c(CN2CCN(c3ccccn3)CC2)cc(Cl)c2cccnc12	17.7 µM
